{"source": "patent US10828317B2", "about": "“Method of treating bacterial infections” (priority 2016, dated 2020)", "key": {"[1]": {"test_system": "P. aeruginosa EN004", "experiment": "MIC, WT (EN004 = EN0004)", "assay_type": "cell-based, Pseudomonas aeruginosa"}, "[2]": {"test_system": "K. oxytoca EN0392", "experiment": "MIC", "assay_type": "cell-based", "conditions": "Klebsiella oxytoca, EN0392, combination didanosine+trimethoprim+uridine, Table 10"}, "[3]": {"test_system": "S. typhimurium EN0466", "experiment": "MIC", "assay_type": "cell-based", "conditions": "Salmonella enterica, combination didanosine+trimethoprim+uridine, Table 10"}, "[4]": {"test_system": "A. baumannii EN007", "experiment": "MIC, WT (EN007 = EN0007)", "assay_type": "cell-based, Acinetobacter baumannii"}, "[5]": {"test_system": "E. coli EN0235", "experiment": "microbe, parasite or virus in culture", "assay_type": "cell-based", "conditions": "Escherichia coli, EN0235, combination didanosine+trimethoprim+uridine, Table 20"}, "[6]": {"test_system": "E. aerogenes EN0461", "experiment": "MIC", "assay_type": "cell-based, Enterobacter aerogenes", "conditions": "Klebsiella aerogenes, EN0461, combination didanosine+trimethoprim+uridine, Table 10; read-out: MIC"}, "[7]": {"test_system": "E. coli EN0136", "experiment": "MIC, ESBL (CTX-M-2)", "assay_type": "cell-based", "conditions": "Escherichia coli, EN0136, combination didanosine+trimethoprim+uridine, Table 20; read-out: MIC"}, "[8]": {"test_system": "K. pneumoniae EN006", "experiment": "MIC, WT (EN006 = EN0006, ATCC 13883)", "assay_type": "cell-based, Klebsiella pneumoniae"}, "[9]": {"test_system": "K. pneumoniae EN0463", "experiment": "MIC", "assay_type": "cell-based, Klebsiella pneumoniae", "conditions": "Klebsiella pneumoniae, EN0463, combination didanosine+trimethoprim+uridine, Table 10; read-out: MIC"}, "[10]": {"test_system": "P. mirabilis ST19 EN0445", "experiment": "MIC", "assay_type": "cell-based, Proteus mirabilis", "conditions": "Proteus mirabilis, ST19EN0445, combination didanosine+trimethoprim+uridine, Table 10; read-out: MIC"}, "[11]": {"test_system": "P. aeruginosa EN014", "experiment": "MIC, WT", "assay_type": "cell-based, Pseudomonas aeruginosa", "conditions": "Pseudomonas aeruginosa, EN014, combination didanosine+trimethoprim+uridine, Table 10; read-out: MIC"}, "[12]": {"test_system": "S. epidermidis EN0456", "experiment": "MIC", "assay_type": "cell-based, Staphylococcus epidermidis", "conditions": "Staphylococcus epidermidis, EN0456, combination didanosine+trimethoprim+uridine, Table 10; read-out: MIC"}, "[13]": {"test_system": "A. pittii or A. nosocomialis EN0180", "experiment": "MIC", "assay_type": "cell-based, Acinetobacter pittii or nosocomialis", "conditions": "combination didanosine+trimethoprim+uridine, Table 10; read-out: MIC"}, "[14]": {"test_system": "E. coli EN001", "experiment": "MIC, WT (EN001 = EN0001, ATCC 25922)", "assay_type": "cell-based, Escherichia coli", "conditions": "combination didanosine+trimethoprim+uridine, Table 20"}, "[15]": {"test_system": "P. aeruginosa EN0422", "experiment": "MIC", "assay_type": "cell-based, Pseudomonas aeruginosa", "conditions": "Pseudomonas aeruginosa, EN0422, combination didanosine+trimethoprim+uridine, Table 10; read-out: MIC"}, "[16]": {"test_system": "S. aureus EN008", "experiment": "MIC, Gram-positive control", "assay_type": "cell-based, Staphylococcus aureus", "conditions": "Staphylococcus aureus, EN008, combination didanosine+trimethoprim+uridine, Table 10; read-out: MIC"}, "[17]": {"test_system": "P. aeruginosa EN0459", "experiment": "MIC", "assay_type": "cell-based, Pseudomonas aeruginosa", "conditions": "Pseudomonas aeruginosa, EN0459, combination didanosine+trimethoprim+uridine, Table 10; read-out: MIC"}, "[18]": {"test_system": "Citrobacter sp. EN0465", "experiment": "MIC", "assay_type": "cell-based", "conditions": "Citrobacter, SP.EN0465, combination didanosine+trimethoprim+uridine, Table 10; read-out: MIC"}, "[19]": {"test_system": "P. aeruginosa EN0460", "experiment": "MIC", "assay_type": "cell-based, Pseudomonas aeruginosa", "conditions": "Pseudomonas aeruginosa, EN0460, combination didanosine+trimethoprim+uridine, Table 10; read-out: MIC"}, "[20]": {"test_system": "E. coli EN012", "experiment": "MIC, WT", "assay_type": "cell-based, Escherichia coli", "conditions": "Escherichia coli, EN012, combination didanosine+trimethoprim+uridine, Table 10; read-out: MIC"}, "[21]": {"test_system": "A. baumannii EN016", "experiment": "MIC, WT", "assay_type": "cell-based, Acinetobacter baumannii", "conditions": "Acinetobacter baumannii, EN016, combination didanosine+trimethoprim+uridine, Table 10; read-out: MIC"}, "[22]": {"test_system": "S. aureus V86", "experiment": "MIC", "assay_type": "cell-based", "conditions": "Staphylococcus aureus, V86; Mupirocin resistant isolate; read-out: MIC (resistance pattern)"}, "[23]": {"test_system": "S. aureus V308", "experiment": "MIC", "assay_type": "cell-based", "conditions": "Staphylococcus aureus, V308; Mupirocin resistant isolate; read-out: MIC (resistance pattern)"}, "[24]": {"test_system": "S. aureus V321", "experiment": "MIC", "assay_type": "cell-based", "conditions": "Staphylococcus aureus, Mupirocin resistant isolate, read-out: MIC (resistance pattern)"}, "[25]": {"test_system": "S. aureus V55", "experiment": "MIC", "assay_type": "cell-based", "conditions": "Staphylococcus aureus, Mupirocin resistant isolate, read-out: MIC (resistance pattern)"}, "[26]": {"conditions": "combination didanosine+trimethoprim+uridine, Table 20"}}, "note": "Read-outs that look alike come from different tables or passages of the source.", "data": [{"smiles": "O=c1[nH]cnc2c1ncn2[C@H]1CC[C@@H](CO)O1", "note": "[Didanosine, didanosine]", "values": [{"measurement": "MIC", "setting": "[1]; Pseudomonas aeruginosa, EN004, combination didanosine+trimethoprim+uridine, Table 10, read-out: MIC", "result": "> 4", "unit": "µg/mL"}, {"measurement": "MIC", "setting": "[1]; [26]", "result": ">4", "unit": "µg/mL"}, {"measurement": "MIC", "setting": "[2]", "result": 0.25, "unit": "µg/mL"}, {"measurement": "MIC", "setting": "[3]", "result": 0.25, "unit": "µg/mL"}, {"measurement": "MIC", "setting": "[4]; Acinetobacter baumannii, EN007, combination didanosine+trimethoprim+uridine, Table 10, read-out: MIC", "result": "> 4", "unit": "µg/mL"}, {"measurement": "MIC", "setting": "[4]; [26]", "result": ">4", "unit": "µg/mL"}, {"measurement": "MIC", "setting": "[5]", "result": 0.125, "unit": "µg/mL"}, {"measurement": "MIC", "setting": "[6]", "result": 0.5, "unit": "µg/mL"}, {"measurement": "MIC", "setting": "[7]", "result": "> 4", "unit": "µg/mL"}, {"measurement": "MIC", "setting": "[8]; Klebsiella pneumoniae, EN006, combination didanosine+trimethoprim+uridine, Table 10, read-out: MIC", "result": 0.5, "unit": "µg/mL"}, {"measurement": "MIC", "setting": "[8]; [26]", "result": 0.5, "unit": "µg/mL"}, {"measurement": "MIC", "setting": "[9]", "result": 0.25, "unit": "µg/mL"}, {"measurement": "MIC", "setting": "[10]", "result": 1, "unit": "µg/mL"}, {"measurement": "MIC", "setting": "[11]", "result": "> 4", "unit": "µg/mL"}, {"measurement": "MIC", "setting": "[12]", "result": 0.064, "unit": "µg/mL"}, {"measurement": "MIC", "setting": "[13]", "result": "> 4", "unit": "µg/mL"}, {"measurement": "MIC", "setting": "[14]", "result": 0.25, "unit": "µg/mL"}, {"measurement": "MIC", "setting": "[15]", "result": "> 4", "unit": "µg/mL"}, {"measurement": "MIC", "setting": "[16]", "result": 0.5, "unit": "µg/mL"}, {"measurement": "MIC", "setting": "[17]", "result": "> 4", "unit": "µg/mL"}, {"measurement": "MIC", "setting": "[18]", "result": "> 4", "unit": "µg/mL"}, {"measurement": "MIC", "setting": "[19]", "result": "> 4", "unit": "µg/mL"}, {"measurement": "MIC", "setting": "[20]", "result": 0.064, "unit": "µg/mL"}, {"measurement": "MIC", "setting": "[21]", "result": "> 4", "unit": "µg/mL"}]}, {"smiles": "C/C(=C\\C(=O)OCCCCCCCCC(=O)O)C[C@@H]1OC[C@H](C[C@@H]2O[C@H]2[C@@H](C)[C@H](C)O)[C@@H](O)[C@H]1O", "note": "[Mupirocin]", "values": [{"measurement": "MIC", "setting": "[22]", "result": "> 256", "unit": "µg/mL"}, {"measurement": "MIC", "setting": "[23]", "result": "> 256", "unit": "µg/mL"}, {"measurement": "MIC", "setting": "[24]", "result": "> 256", "unit": "µg/mL"}, {"measurement": "MIC", "setting": "[25]", "result": "> 256", "unit": "µg/mL"}]}]}
